Source: US20100216767A1, “QUINAZOLINES FOR PDK1 INHIBITION” (priority 2006, published 2010)

Target: T1, PDK1 kinase (Homo sapiens, UniProt O15530)
T1 sequence (O15530 1-556): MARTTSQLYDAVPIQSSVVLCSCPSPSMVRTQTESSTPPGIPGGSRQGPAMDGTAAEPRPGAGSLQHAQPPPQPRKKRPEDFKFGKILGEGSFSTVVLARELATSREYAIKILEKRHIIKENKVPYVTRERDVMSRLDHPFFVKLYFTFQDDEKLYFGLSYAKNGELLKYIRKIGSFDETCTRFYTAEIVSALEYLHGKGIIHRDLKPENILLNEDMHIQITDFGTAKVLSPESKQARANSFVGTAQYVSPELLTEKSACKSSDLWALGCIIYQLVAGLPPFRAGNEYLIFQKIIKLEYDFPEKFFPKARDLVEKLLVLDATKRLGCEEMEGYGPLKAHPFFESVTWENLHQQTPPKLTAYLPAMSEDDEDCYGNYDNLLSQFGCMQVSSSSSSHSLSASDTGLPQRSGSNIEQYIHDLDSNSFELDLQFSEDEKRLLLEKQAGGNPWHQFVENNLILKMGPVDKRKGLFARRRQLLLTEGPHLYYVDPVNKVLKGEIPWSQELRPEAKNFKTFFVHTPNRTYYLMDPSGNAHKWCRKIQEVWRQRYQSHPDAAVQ
Assay: PDK1 Kinase Alpha Screen Assay
Assay type: biochemical
Details: Table 1; 10 μM ATP, 50 nM PDK1-4 peptide
Protocol: Reagents/Concentrations: The PDK1-4 peptide substrate, biotin-[…]-NH2, (SEQ ID NO: 1), was purchased from the Tufts University Core Facility. The final concentration of PDK1-4 peptide substrate was 50 nM. The ATP substrate (adenosine-[…] triphosphate) was purchased from Roche Diagnostics. The final concentration of ATP substrate was 10 μM. Phospho-(Ser/Thr) PKA substrate antibody was purchased from Cell Signaling Technology. The final concentration of antibody was 0.3 mg/mL. The Alpha Screen Protein A detection kit containing donor and acceptor beads was purchased from PerkinElmer Life Sciences. The final concentration of both donor and acceptor beads was 25 μg/mL. Alpha Screen was used for detection. The biotinylated-PDK1-4 peptide was phosphorylated by PDK1 kinase using the ATP substrate. The biotinylated-PDK1-4 peptide substrate was bound to the streptavidin coated donor bead. The antibody was bound to the protein A coated acceptor bead. The antibody bound to the phosphorylated form of the biotinylated PDK-1 peptide substrate, bringing the donor and acceptor beads into close proximity. Laser irradiation of the donor bead at 680 nm generated a flow of short-lived singlet oxygen molecules. When the donor and acceptor beads were in close proximity, the reactive oxygen generated by the irradiation of the donor beads initiated a luminescence/fluorescence cascade in the acceptor beads. This process led to a highly amplified signal with output in the 530-620 nm range. Assays were carried out in 50 mM Tris, pH=7.5, 10 mM MgCl2, 0.1% BSA, 0.01% Tween-20, 2 mM dithiolthreitol, 2.5% dimethyl sulfoxide. Reactions were stopped by adding 50 mM Tris, pH=7.5, 90 mM EDTA, 0.1% BSA, 0.01% Tween-20.
Procedure: To 10 μl, of PDK1-4 peptide, […] of test compound in dimethyl sulfoxide was added. PDK1 kinase and ATP were mixed, and 10 μL of the PDK1 kinase/ATP mix was added to start the reaction. The reaction was allowed to proceed for 3-18 hours. The reactions were then stopped by adding 10 μL of the EDTA-containing stop buffer. Beads were mixed with antibody, and 25 μL of the bead/antibody mix was then added to the stopped reactions. Plates were incubated at room temperature overnight to allow for detection development before being read. The assay was run in a 384-well format plate.

COc1cc(Br)cc2cnc(Nc3ccc(S(N)(=O)=O)cc3)nc12 [Example 1, 4-(6-Bromo-8-methoxyquinazolin-2-ylamino)benzenesulfonamide]
IC50: < 5 µM

C#Cc1cc(OC)c2nc(Nc3ccc(S(N)(=O)=O)cc3)ncc2c1 [Example 2, 4-(6-Ethynyl-8-methoxyquinazolin-2-ylamino)benzenesulfonamide]
IC50: < 5 µM

CCc1cc(OC)c2nc(Nc3ccc(S(N)(=O)=O)cc3)ncc2c1 [Example 3, 4-(6-Ethyl-8-methoxyquinazolin-2-ylamino)benzenesulfonamide]
IC50: < 5 µM

COc1cc(C#N)cc2cnc(Nc3ccc(S(N)(=O)=O)cc3)nc12 [Example 4, 4-(6-cyano-8-methoxyquinazolin-2-ylamino)benzene-sulfonamide]
IC50: < 5 µM

COc1cc(C)cc2cnc(Nc3ccc(S(N)(=O)=O)cc3)nc12 [Example 5, 4-(8-Methoxy-6-methylquinazolin-2-ylamino)benzenesulfonamide]
IC50: < 5 µM

CC(=O)Nc1cc(CN(C)C)cc(Nc2ncc3cc(Br)cc(Cl)c3n2)c1 [Example 6, N-(3-(6-Bromo-8-chloroquinazolin-2-ylamino)-5-((dimethylamino)-methyl)phenyl)acetamide]
IC50: < 5 µM

C#Cc1cc(Cl)c2nc(Nc3cc(CN(C)C)cc(NC(C)=O)c3)ncc2c1 [Example 7, N-(3-(8-Chloro-6-ethynylquinazolin-2-ylamino)-5((dimethylamino)methyl)-phenyl)acetamide]
IC50: < 5 µM

C#Cc1ccc2nc(Nc3ccc(S(N)(=O)=O)cc3)ncc2c1 [Example 10, 4(6-Ethynylquinazolin-2-ylamino)benzenesulfonamide]
IC50: < 5 µM

CC(C)NC(=O)c1ccc(Nc2ncc3cc(-c4nccs4)ccc3n2)cc1 [Example 12, N-Isopropyl-4-(6-(thiazol-2-yl)quinazolin-2-ylamino)benzamide]
IC50: < 5 µM

CC(C)NC(=O)c1ccc(Nc2ncc3cc(C#N)ccc3n2)cc1 [Example 13, 4-(6-Cyanoquinazolin-2-ylamino)-N-Isopropylbenzamide]
IC50: < 5 µM

COc1cc(Br)c(Cl)c2cnc(Nc3cc(CN(C)C)cc(NC(C)=O)c3)nc12 [Example 14, N-(3-(6-Bromo-5-chloro-8-methoxyquinazolin-2-ylamino)-5-((dimethylamino)methyl)phenyl)acetamide]
IC50: < 5 µM

NS(=O)(=O)c1ccc(Nc2ncc3cc(C(=O)O)ccc3n2)cc1 [Example 19, Methyl 2-(4-sulfamoylphenylamimo)quinazolin-6-carboxylic acid]
IC50: < 5 µM

C#Cc1ccc2nc(Nc3ccc(C(=O)N4CCOCC4)cc3)ncc2c1Cl [Example 22, (4-(5-Chloro-6-ethynylquinazolin-2-ylamino)phenyl)(morpholino) methanone]
IC50: < 5 µM

Fc1c(Br)ccc2nc(Nc3ccc(N4CCOCC4)cc3)ncc12 [Example 23, 6-Bromo-5-fluoro-N-(4-morpholinophenyl)quinazolin-2-amine]
IC50: < 5 µM

C#Cc1ccc2nc(Nc3ccc(N4CCOCC4)cc3)ncc2c1F [Example 24, 6-Ethynyl-5-fluoro-N-(4-morpholinophenyl)quinazolin-2-amine]
IC50: < 5 µM

NS(=O)(=O)c1ccc(Nc2ncc3cc(-c4nccs4)ccc3n2)cc1 [Example 27, 4-(6-(Thiazol-2-yl)quinazolin-2-ylamino)benzenesulfonamide]
IC50: < 5 µM

CC(=O)Nc1cc(CN2CCOCC2)cc(Nc2ncc3cc(-c4cn[nH]c4)ccc3n2)c1 [Example 30, N-(3-(6-(1H-Pyrazol-4-yl)quinazolin-2-ylamino)-5-(morpholinomethyl)phenyl)acetamide]
IC50: < 5 µM

CC(=O)Nc1cc(I)cc(Nc2ncc3cc(Br)ccc3n2)c1 [Example 31, N-(3-(6-Bromoquinazolin-2-ylamino)-5-iodophenyl)acetamide]
IC50: < 5 µM

CC(=O)Nc1cc(Nc2ncc3cc(Br)ccc3n2)cc(-c2cccnc2)c1 [Example 32, N-(3-(6-Bromoquinazolin-2-ylamino)-5-(pyridine-3-yl)phenyl)acetamide]
IC50: < 5 µM

C#Cc1ccc2nc(Nc3cc(NC(C)=O)cc(-c4cccnc4)c3)ncc2c1 [Example 34, N-(3-(6-Ethynylyquinazolin-2-ylamino)-5-(pyridine-3-yl)phenyl)acetamide]
IC50: < 5 µM

COc1cc2cnc(Nc3ccc(S(N)(=O)=O)cc3)nc2cc1OC [Example 35, 4-(6,7-Dimethoxyquinazolin-2-ylamino)benzenesulfonamide]
IC50: < 5 µM

COc1ccc2nc(Nc3ccc(C(N)=O)cc3)ncc2c1 [Example 36, 4-(6-methoxyquinazolin-2-ylamino)benzamide]
IC50: < 5 µM

CNC(=O)c1ccc2nc(Nc3ccc(S(N)(=O)=O)cc3)ncc2c1 [Example 37, N-methyl-2-(4-sulfamoyl-phenylamino)quinazoline-6-carboxamide]
IC50: 5 to 10 µM

NC(=O)c1ccc2nc(Nc3ccc(S(N)(=O)=O)cc3)ncc2c1 [Example 42, 2-(4-sulfamoylphenyl-amino)quinazoline-6-carboxamide]
IC50: < 5 µM

NS(=O)(=O)c1ccc(Nc2ncc3cc(C(=O)NC4CC4)ccc3n2)cc1 [Example 43, N-cyclopropyl-2-(4-sulfamoylphenylamino)-quinazoline-6-carboxamide]
IC50: < 5 µM

NS(=O)(=O)c1ccc(Nc2ncc3cc(-c4cccnc4F)ccc3n2)cc1 [Example 44, 4-(6-(2-fluoropyridin-3-yl)quinazolin-2-ylamino)-benzenesulfonamide]
IC50: < 5 µM

CN1CCN(c2cc(-c3ccc4nc(Nc5ccc(S(N)(=O)=O)cc5)ncc4c3)ccn2)CC1 [Example 45, 4-(6-(2-(4-methyl-piperazin-1-yl)pyridin-4-yl)quinazolin-2-ylamino)-benzenesulfonamide]
IC50: < 5 µM

COc1cc2nc(Nc3ccc(S(N)(=O)=O)cc3)ncc2cc1Br [Example 47, 4-(6-Bromo-7-methoxyquinazolin-2-ylamino)benzenesulfonamide]
IC50: < 5 µM

COc1cc2nc(Nc3ccc(S(=O)(=O)N4CCOCC4)cc3)ncc2cc1Br [Example 48, 6-bromo-7-methoxy-N-(4-(morpholinosulfonyl)phenyl)-quinazolin-2-amine]
IC50: < 5 µM

C#Cc1cc2cnc(Nc3ccc(S(N)(=O)=O)cc3)nc2cc1OC [Example 49, 4-(6-ethynyl-7-methoxy-quinazolin-2-ylamino)-benzenesulfonamide]
IC50: < 5 µM

C#Cc1cc2cnc(Nc3ccc(S(=O)(=O)N4CCOCC4)cc3)nc2cc1OC [Example 50, 6-ethynyl-7-methoxy-N-(4-(morpholinosulfonyl)-phenyl)-quinazolin-2-amine]
IC50: < 5 µM

C#Cc1ccc2nc(Nc3cccc(N4CCOCC4)c3)ncc2c1 [Example 51, 6-ethynyl-N-(3-morpholinophenyl)-quinazolin-2-amine]
IC50: < 5 µM

COc1cc(C#Cc2cccnc2)cc2cnc(Nc3ccc(S(N)(=O)=O)cc3)nc12 [Example 53, 4-(8-methoxy-6-(pyridin-3-ylethynyl)quinazolin-2-ylamino)benzene-sulfonamide]
IC50: 10 to 25 µM

Cc1ccc2nc(Nc3ccc(S(N)(=O)=O)cc3)ncc2c1 [Example 54, 4-(6-methylquinazolin-2-ylamino)benzene-sulfonamide]
IC50: < 5 µM

Cn1cc(-c2ccc3nc(Nc4ccc(S(N)(=O)=O)cc4)ncc3c2)cn1 [Example 56, 4-(6-(1-methyl-1H-pyrazol-4-yl)quinazolin-2-ylamino)benzene-sulfonamide]
IC50: < 5 µM

C#Cc1ccc2nc(Nc3ccc(N4CCOCC4)cc3)ncc2c1 [Example 57, 6-ethynyl-N-(4-morpholinophenyl)-quinazolin-2-amine]
IC50: < 5 µM

C#Cc1ccc2nc(Nc3ccc(C(N)=O)cc3)ncc2c1 [Example 58, 4-(6-ethynylquinazolin-2-ylamino)benzamide]
IC50: < 5 µM

C#Cc1ccc2nc(Nc3cccc(C(N)=O)c3)ncc2c1 [Example 59, 3-(6-ethynylquinazolin-2-ylamino)benzamide]
IC50: < 5 µM
